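Values below derive from 48-hour exposures of cells grown in 96-well plates, with endpoints linearly interpolated between the two concentrations bracketing the appropriate inhibition level. Definition used: TGI = concentration required for complete inhibition of growth.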
Columns and labels:
Assay in all cases: DTP human tumour cell line panel, 48 h
HCC-2998 colon = tested on: HCC-2998 colon
HOP-92 NSCLC = tested on: HOP-92 NSCLC
MDA-MB-231 breast = tested on: MDA-MB-231 breast
NCI/ADR-RES ovarian = tested on: NCI/ADR-RES ovarian
OVCAR-4 ovarian = tested on: OVCAR-4 ovarian
PC-3 prostate = tested on: PC-3 prostate
SNB-19 CNS = tested on: SNB-19 CNS
SR leukemia = tested on: SR leukemia
SW-620 colon = tested on: SW-620 colon
T-47D breast = tested on: T-47D breast
UO-31 renal = tested on: UO-31 renal
OVCAR-3 ovarian = tested on: OVCAR-3 ovarian
BT-549 breast = tested on: BT-549 breast

SMILES | TGI (HCC-2998 colon) [µM] | TGI (HOP-92 NSCLC) [µM] | TGI (MDA-MB-231 breast) [µM] | TGI (NCI/ADR-RES ovarian) [µM] | TGI (OVCAR-4 ovarian) [µM] | TGI (PC-3 prostate) [µM] | TGI (SNB-19 CNS) [µM] | TGI (SR leukemia) [µM] | TGI (SW-620 colon) [µM] | TGI (T-47D breast) [µM] | TGI (UO-31 renal) [µM] | TGI (OVCAR-3 ovarian) [µM] | TGI (BT-549 breast) [µM]
Cc1ccc(S(=O)(=O)NNC(=O)Nc2cccc(C(F)(F)F)c2)cc1 | > 100 | > 100 | > 100 | > 100 | > 100 | > 100 | > 100 | > 100 | > 100 | > 100 | > 100 |  | 
CC(C)[Si](OC12CCC(CC1O)CC2CO)(C(C)C)C(C)C (stereo unspecified) |  | 29 | 45.6 | 28.3 | 23.7 | 24.1 | 28.6 | 38.5 | 52.4 | 25.7 | 26.8 | 27.6 | 
CC(NCc1c(O)ccc2c(-c3ccccc3)cc(=O)oc12)C(=O)O (stereo unspecified) | > 100 | > 100 | > 100 | > 100 | > 100 | > 100 | > 100 | > 100 | > 100 | > 100 | > 100 | > 100 | 
C=CCOC(=O)Cn1cnc2c(N)ncnc21 | > 100 |  | > 100 | > 100 | > 100 | > 100 | > 100 | > 100 | > 100 | > 100 | > 100 |  | 
CC(=O)N1C=Cc2c(c(C)c3c([nH]c4ccccc43)c2C)C1 |  | 20.8 | 9.34 | 8.41 | 5.17 | 19.6 | 28.7 | > 100 | 7.47 |  |  | 4.55 | 14.6
C=C=C[P+](c1ccccc1)(c1ccccc1)c1ccccc1 | > 100 |  |  |  | > 100 |  |  | 60.8 |  |  | > 100 | 34.4 | 
O=C(CNc1ccccc1[N+](=O)[O-])Nn1cnc2ccc(S(=O)(=O)Nc3ccccc3[N+](=O)[O-])cc2c1=O | > 100 | > 100 | > 100 | > 100 | > 100 | > 100 | > 100 | > 100 | > 100 |  | > 100 | > 100 | > 100
O=C1c2ccccc2C(=O)N1/N=C1/SC(=Nc2ccccc2)C(=Nc2ccccc2)N1c1ccccc1 | > 100 | > 100 |  | > 100 | > 100 | > 100 | > 100 | > 31.6 | > 100 | > 100 | > 100 | > 100 | > 100
CN(C)CCNc1ccc(NCC[N+](C)(C)Cc2ccc([N+](=O)[O-])cc2)c2c1C(=O)c1c(O)ccc(O)c1C2=O |  |  | > 100 | > 100 | > 100 | > 100 | > 100 |  | > 100 | > 100 |  | > 100 | 40.9
CC(C)OC(=O)NCCn1cc(-c2ccccc2)nn1 | > 100 | > 100 | > 100 | > 100 | > 100 | > 100 | > 100 | > 100 |  |  |  |  | > 100
CN1CCN(Cn2nc(COc3ccccc3Cl)n(/N=C/c3ccc(-c4ccc(Cl)cc4Cl)o3)c2=S)CC1 | 33.8 | 40.6 | 69.5 | 61.9 | 45.2 | 53.6 |  | 51.8 | 34.6 | 55 | > 100 | 47.5 | 
Brc1ccc(C2=NCSC(c3ccc(Br)cc3)=N2)cc1 | 51 | > 100 | > 100 | > 100 | > 100 | 56.7 | > 100 | 47.4 | > 100 |  | 67.2 |  | > 100
CC[C@@H]1/C=C/C=C/C[C@H](C)[C@@H](O)[C@@H](C)C(=O)[C@H](C)[C@@H](O)[C@H](C)C(=O)[C@H](C)[C@@H](O)[C@H](C)/C=C/C(=O)O[C@H]2[C@@H](C)[C@@H](CC1)O[C@@]1(CC[C@@H](C)[C@@H](CC(C)O)O1)[C@@H]2C (stereo partly specified) | 8.52 | > 20 | > 17.4 | > 19.1 | > 19.3 | 12.3 | > 25 | 10.2 | > 25 |  |  | 17.7 | 24.4
C=C(Br)C(C)(Cl)CCC(Br)C(C)(C)Br (stereo unspecified) |  | > 100 |  |  | > 100 |  |  | 51.9 | > 100 |  | > 100 |  | 
COC(=O)c1c(O)c(C#N)c2[nH]c3ccccc3n2c1=O | > 100 | > 100 | > 100 | > 100 | > 100 | > 100 | > 100 | > 100 | > 100 |  | > 100 | > 100 | > 100
Cc1cn([C@@H]2O[C@H](CO[Si](C)(C)C(C)(C)C)[C@]3(O[C@H]3C(=O)NO)[C@H]2O[Si](C)(C)C(C)(C)C)c(=O)[nH]c1=O | 2.97 | 4.17 | 4.19 | 18.5 | 3.77 | 5.66 | 3.18 |  | 4.28 | 4.07 | 3.28 | 3.49 | 3.29
COc1cccc2c1C(=O)c1c(O)c3c(c(O)c1C2=O)C[C@@](O)(C(=O)CO)CC3OC1CC(N(C)CCOCC(OC(C)=O)OC(C)=O)C(O)C(C)O1 (stereo partly specified) | > 0.01 | > 0.01 |  |  | > 0.01 |  | > 0.01 |  | > 0.01 |  | > 0.01 | > 0.01 | 
O=C(CC(NC(=O)OCc1ccccc1)C(=O)NC1Cc2ccccc2C1=O)OCc1ccccc1 (stereo unspecified) | > 100 |  |  | > 100 |  | > 100 | > 100 | > 100 | > 100 |  | > 100 | > 100 | > 100
O=C(c1ccc2ccccc2c1)C1(I)S(=O)(=O)OCCOS1(=O)=O | > 100 |  | > 100 | > 100 | > 100 | > 100 | > 100 | > 100 |  |  | > 100 | > 100 | > 100
CCN(CC)C(=O)CCn1ccc(=O)[nH]c1=O |  |  |  |  | > 100 |  | > 100 | > 100 | > 100 |  | > 100 | > 100 | 
CC(=O)c1ccc(Br)cc1NC1=CC(=O)c2ncccc2C1=O | 8.54 | 26 | 10.8 | 14.9 | 11.2 | 13.5 | 11.3 | 5.97 |  | 9.37 | 15.8 | 4.09 | 

Reference: PubChem BioAssay (NCI)
